A melting point compilation (Tetko et al.; mined from patent text by program, amines drawn as free bases though some values may be those of a salt)

Structure (SMILES) | melting point [°C]
COC(=O)c1nc(C2CCCCC2)[nH]c1-c1ccc(C)cc1 | 210 to 213
O=C(C#CCCc1cccc(CF)n1)Nc1ccc(F)cc1 | 110
CNC(C(=O)O)c1ccc(Cl)cc1 (configuration not stated) | 208 to 213
Fc1cccc(/C=C/C2=CCN(Cc3c[nH]c4ncccc34)CC2)c1 | 199 to 201
O=C(NO)c1ccc(OCCNS(=O)(=O)c2ccc(C(=O)Nc3ccc(Cl)c(-c4ccccn4)c3)c(Cl)c2)cc1 | 138 to 139
Cc1noc(-c2ncn3c2cnc2ccccc23)n1 | 269 to 270
CC(=O)Nc1ccc(-c2nc3c(s2)C(=O)c2ccccc2C3=O)o1 | > 260
C=Cn1nc(-c2ccc(OC)cc2)cc(C(=O)NC)c1=O | 130 to 133
CC(=O)OCCN(C(=O)CBr)c1ccc(Cl)cc1C(=O)c1ccccc1F | 84 to 88
CC(C#N)c1c(Cl)cc([N+](=O)[O-])cc1Cl (configuration not stated) | 72
CSC1CC(=O)N1Cc1ccccc1 (configuration not stated) | 26 to 28
CCc1cc2c(s1)-n1c(C3CCCCC3)nnc1C(N)N=C2c1ccccc1Cl (configuration not stated) | 175 to 176
Cc1nc(NC(=O)c2ccccc2)sc1C(=O)NCc1cccc(Cl)c1 | 198 to 199
Nc1ccc(F)c(O)c1 | 156 to 157
CN(C)Cc1cc(-c2ccccc2)c2c(n1)OCCN(Cc1cc(C(F)(F)F)cc(C(F)(F)F)c1)C2=O | 186 to 188
Nc1ccc(-c2ccc3nnn(Cc4ccc5ncccc5c4)c3n2)cn1 | 194 to 197
CC(=O)Oc1ccc(-c2ccc(C(C)=O)cc2)cc1 | 124 to 126
CCCOC(N)=C(C#N)C(N)=S | 174
O=C(CCCN1CCN(c2cc(-c3ccc(F)cc3)c3c(n2)CCC3)CC1)c1ccc(F)cc1 | 115 to 116
CN1CCN(c2ncnc3c(NC(=O)c4c(Cl)cccc4Cl)cccc23)C1=O | > 250
S=c1sc(=Nc2ccc(Cl)cc2)n2n1CCCC2 | 96 to 97
CN1C(=O)C(C)(C)C(=O)N(C)c2cc([N+](=O)[O-])ccc21 | 224 to 225
O=C(O)c1ccc2cccnc2c1O | 264 to 266
COc1cc(Nc2c(C#N)cnc3cc(-c4ccc(C=O)cc4)sc23)c(Cl)cc1Cl | 261 to 262
O=C(Cn1ccnc1)C12CC3CC(CC(C3)C1)C2 | 130
C#Cc1c(C#N)nn(-c2c(Cl)cc(C(F)(F)F)cc2Cl)c1Cl | 109 to 110

Structure (SMILES) | melting point [°C]
CC(=NO)C1CC(Cn2ccnc2)(c2ccc(Cl)cc2)N(C)O1 (configuration not stated) | 214 to 216
O=C1Nc2ccccc2SC1CCCCBr (configuration not stated) | 100
CCc1ccc2nc(-c3ccc(-c4ccccc4)cc3)c(N)c(C(=O)O)c2c1 | 240 to 241
BrCCCCOc1ccc2c(c1)OCO2 | 52 to 54
COC1CC2CCC1C2Nc1ccc([N+](=O)[O-])c2onnc12 (configuration not stated) | 178 to 180
Cc1c(N2CCC(N)C2)c(F)cc2c(=O)c(C(=O)O)cn(C3CC3)c12 (configuration not stated) | 187 to 190
CC(C)C(=O)Oc1c(-c2ccc(-c3ccccc3)cc2)nc2ccc(F)cc2c1C(=O)O | 201 to 204
CCN1C(=Cc2ccc([N+](=O)[O-])cc2C#N)C=Cc2ccccc21 | 183 to 184
CCOCC(=O)Nc1ncc(Cc2cc(OC)c(OC)c(OC)c2)c(N)n1 | 175 to 176
O=C(OCC(Cl)(Cl)Cl)N1C2CCC1CC(Sc1ccccc1)C2 (configuration not stated) | 83 to 84.5
CC(C)C(N)CN1CCC(Nc2nc3ccccc3[nH]2)CC1 (configuration not stated) | 138
NS(=O)(=O)c1cc(OC(F)F)ccc1OC(F)F | 73 to 74
OCC(O)CN1CCN(c2ccc(Cl)nn2)CC1 (configuration not stated) | 126 to 128
N=C1NC(=O)C(Cc2ccc(OCCN3CCOCC3)cc2)S1 (configuration not stated) | 189 to 190
CCCCS(=O)(=O)N(C)CCN1CC(c2ccc3c(c2)OCO3)C(C(=O)O)C1c1ccc(OC)cc1 (configuration not stated) | 64 to 66
CCOC(=O)C1=CCCCC1S(=O)(=O)Nn1c(C)ccc1C (configuration not stated) | 96 to 97
COC1=C(OC)C(=O)C(CCCCCCCCCCCCCCCCCCO)=C(C)C1=O | 81
COC(=O)c1cc(=O)n(C)c2ccc(C(=O)c3ccc(Cl)cc3)cc12 | 182
Nc1c2c(nc3ccccc13)-c1ccccc1SC2 | 211 to 212
CCC1c2cccn2-c2ccc(F)cc2N1C(=O)c1ccc(OC)cc1OC (configuration not stated) | 131 to 132
Cc1c(C)c2c(c(C)c1NC(=O)c1ccc(F)cc1)C(c1ccc(F)cc1)C(C)(C)O2 (configuration not stated) | 140 to 142
Clc1ccc(Oc2ccc(N3CCNCC3)nc2)cc1 | 98 to 100
CCOCn1cc(F)c(=O)n(C(=O)c2cccc(C(=O)Oc3nc(OC(=O)c4ccc(Cl)cc4Cl)ccc3C#N)c2)c1=O | 140 to 142
BrCc1noc2ccccc12 | 60 to 62
CN1CCN(c2nc3ccccc3n2CCOc2ccccc2)CC1 | 152 to 154

Next, values leading:

melting point [°C] | Structure (SMILES)
129 to 131 | CSC(Nc1cc(C(F)(F)F)cc(C(F)(F)F)c1)=C(C#N)S(C)(=O)=O
193 | Cn1cnc(COc2nn3c(-c4ccccc4F)nnc3cc2C2(C)CCC(F)(F)CC2)n1
268 to 270 | Cc1nc2cnccc2n1-c1ccc(C2=Cc3nccn3-c3cc(Cl)c(Cl)cc3N2C)cc1
146 to 148 | CCCn1nc(-c2sc(C(=O)NC(C)C)nc2-c2ccccc2)ccc1=O
58 to 59 | C(=C1CCCc2cccnc21)c1ccccc1
205 to 209 | Cc1ccc2c(C(=O)O)csc2c1
166 to 168 | O=C(N[C@H]1CCCNC1=O)c1ccccc1F
139 to 143 | NN=C1c2ccccc2-c2ccc(Cl)cc21
242 to 243 | CC1(C)CC(c2c[nH]c(-c3ccc(F)cc3)c2-c2ccncc2)CC(C)(C)N1
219 to 220 | CCOC(=O)c1cn(-c2ccc(F)cc2F)c2nc(N3CCN(C(C)=O)CC3)c(F)cc2c1=O
179 to 180 | COc1ccc(C2=C(c3ccc(S(N)(=O)=O)cc3)CCC2)cc1Cl
134 to 136 | CN(C)S(=O)(=O)CCc1ccccc1S(N)(=O)=O
108 to 110 | COc1ccc(C2CC(OC(C)=O)CCC2[N+](=O)[O-])cc1OC (configuration not stated)
51.3 | ClC(Cl)=CCOc1cc(Cl)c(OCC=Cc2ccccc2)c(Cl)c1
89 to 91 | COc1cccc(CC(CO)NCCC(c2ccccc2)c2ccccc2)c1 (configuration not stated)
216 to 220 | CSc1nc(-c2ccc(O)cc2)n(C)n1
124 to 126 | COc1ccc(C(OCC2OC(n3cc(C)c(=O)[nH]c3=O)CC2O)(c2ccccc2)c2ccc(OC)cc2)cc1 (configuration not stated)
308 to 311 | CCOC(=O)c1c(=O)c2cc3c(cc2n2c(C)csc12)OCO3
124 to 126 | COc1ccc(S(=O)(=O)N(CCC(F)(F)F)c2ccccc2/C=C/c2ccncc2)cc1
200 to 202 | C#CCn1c(-c2cc(Cl)nc(Cl)c2)nc(O)c(CC)c1=O
204 to 205 | COc1cc(Cc2cnc(N)nc2N)cc(Br)c1OC
207 to 209 | CCc1nc2c(cnn2CC)c(NC2CCOCC2)c1CNC(=O)c1cccc(C(=O)O)c1
150 to 151 | Cn1nc(C=O)cc1C(C)(C)CNC(=O)c1ccccc1
232 to 235 | COc1ccccc1N1CCN(NC(=O)c2ccc(Cl)c(S(N)(=O)=O)c2)CC1
129 to 132 | C=CCN1CCC=C(c2csc(N)n2)C1
227 to 229 | COc1ccc(-c2cc(S(=O)(=O)c3ccc(N)cc3)cc(N3CCCC3)n2)cc1

melting point [°C] | Structure (SMILES)
91 to 93 | CS(=O)(=O)c1ccccc1S(=O)(=O)Nc1cccc2cc(C(=O)NCCSC(c3ccccc3)(c3ccccc3)c3ccccc3)[nH]c12
194 | O=C(O)CCN1C(=O)c2cccc(NC(=O)c3ccc(Cl)s3)c2C1=O
226 | CC1(C)Oc2ccc(C#N)cc2[C@@H](N2CCCC2=O)[C@@H]1O (relative stereo)
194 to 196 | CC(=O)On1c(=N)n[n+]([O-])c2ccccc21
148 to 152 | Cc1nc(-c2ccc(OC3CCCCO3)cc2)cc(-c2c(Cl)ccc(Cl)c2Cl)c1C#N (configuration not stated)
130 to 132 | C[C@@H](CN1CCc2ccc3c(c21)OCCO3)NC(=O)OC(C)(C)C
210 | C=CCS(=O)(=O)c1ccc(N2CC=C(c3ccc(Cl)cc3)N2)cc1
83 to 85 | CN(C)C(=O)C1=C(C(=O)Nc2ccc(Br)cc2F)CCCC1
105 to 110 | CN(CCCCNC(=NCCCOc1cccc(CN2CCCCC2)c1)NC#N)CCC(c1ccc(F)cc1)c1ccccn1 (configuration not stated)
229 | CN(C)c1ccc(C2(c3ccccc3)Oc3ccccc3-c3[nH]c4ccccc4c32)cc1 (configuration not stated)
76 to 78 | CC1=C(Cl)CC2C(=O)OC(=O)C2C1 (configuration not stated)
128 | O/C(=C\c1nc2ccccc2c2nccn12)c1cccs1
82 to 85 | CC=CCN1CCNC1=C[N+](=O)[O-]
55 to 56 | CCCN(Sc1nc2ccccc2s1)C(C)(C)C
222 to 224 | N#Cc1ccc(N(Cc2ccc(Br)cc2)n2cnnc2)cc1-c1ccc(O)cc1
285 to 288 | O=c1cc(-c2ccccc2)c2c([nH]1)CCCC2
176 to 177 | COC(=O)c1ccc(C(=O)Nc2ccc3c(c2)C(C)(C)CCC3(C)C)nc1
138 to 141 | CC(=O)CC(=O)N(C)c1cccc(-c2ccc3nnc(C)n3n2)c1
254 to 255 | Nc1ncc(C2CCN(c3ccc(Cl)cc3)CC2)c(N)n1
96 to 97 | CCOc1ccc(-c2nc(-c3ccc(OCC(=O)OC)c(C(=O)OC)c3)cs2)cc1OCC
140 to 141 | CC(C)C[C@H](N)C(=O)N[C@@H](CC1CCCCC1)[C@@H](O)c1nccs1
188 to 189 | COc1nc(C)nc2c1-c1ccc(Cl)cc1C(c1ccccc1F)=NC2
> 250 | Cc1ccc(-c2ccc(Cl)cc2)cc1-c1c(O)cnn(C)c1=O
112 | CCOC(=O)CCC1CCC2C(C=CC3=CCCc4c3n2c2ccncc42)C1 (configuration not stated)
98 | COc1ccc(-c2cc(Cl)cc3c2NC(CN)CO3)c(C)c1 (configuration not stated)
